Results: patent US12559529B2, “NPY2 receptor agonists” (Boehringer Ingelheim International GmbH, priority 2019, dated 2026)
*1 amine or outer side, *2 acyl side, *3 side chain or, on linkers, in order; H or OH if unused. Where a SMILES comes first, the peptide text is derived from it. Side-chain parts run from the residue outwards. The star is where a group is joined. C18 diacid = O=C(O)CCCCCCCCCCCCCCCCC(=O)*; γGlu = O=C(O)[C@H](CCC(=O)[*:2])N[*:1]; Isovaleryl = CC(C)CC(=O)*; AEEA = NCCOCCOCC(=O)O

Tests used:
normal NMRI mice = test: Effect on acute food intake in normal NMRI mice; assay type: in vivo; conditions: male NMRI mice, 10 nmol/kg subcutaneously once
Protocol: Male NMRI mice were obtained from Charles River (Charles River, Research Models & Services Germany GmbH) or from Jan Vier (Jan Vier Labs, France) at 5 weeks of age. […] Room temperature was controlled to 21° C.±1° C., with 60%+20% humidity.
Animals were transferred 5-7 days before the start of the study to a real-time food intake monitoring system, HM-2 system (MBRose, Denmark), to allow acclimatization to experimental conditions. As the animals were uniquely identified with microchips, each individual animal was identified by its microchip upon entry and exit from the food channel. Randomization of the mice for each study group (n=7-8) was based on body weight measured the day before the start of the study. A vehicle-treated (50 mM phosphate buffer pH7 with 5% Mannitol) group was included in each experiment. Six hours before the start of the night phase animals were fasted. One hour before the dark phase animals were dosed once subcutaneously (10 nmol/kg) with test peptide. […] The food intake of the treated groups was normalized (in %) to the average food intake of the group receiving vehicle (Table 7). Statistical significance was evaluated using One-way analysis of variance with Turkey's multiple comparison test. P<0.05 was considered statistically significant.

[1] = target: T1, Human Neuropeptide Y2 Receptor (Homo sapiens, UniProt P49146); test: Radioligand binding competition assay (RLB); conditions: Table 3; human 125I-PYY (1-36) 0.02 nM, Y2 receptor membranes; read-out: Ki
T1 construct: purchased CHEMICON HTS066M
T1 sequence (P49146 1-381): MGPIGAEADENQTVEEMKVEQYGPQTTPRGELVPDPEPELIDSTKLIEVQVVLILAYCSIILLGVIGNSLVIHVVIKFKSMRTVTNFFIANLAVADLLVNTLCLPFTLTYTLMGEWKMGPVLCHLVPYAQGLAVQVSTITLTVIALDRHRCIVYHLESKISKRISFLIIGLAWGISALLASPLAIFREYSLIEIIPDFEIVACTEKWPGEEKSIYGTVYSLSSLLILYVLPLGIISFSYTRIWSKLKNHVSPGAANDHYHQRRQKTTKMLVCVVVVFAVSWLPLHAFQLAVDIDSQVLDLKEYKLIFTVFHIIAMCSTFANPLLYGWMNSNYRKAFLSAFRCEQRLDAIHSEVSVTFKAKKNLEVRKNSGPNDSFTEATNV
How it was run: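 Membranes (0.5 μg/well) and test peptides, serially diluted from 1 mM DMSO stocks, were incubated 2 hours at room temperature in HEPES buffer pH 7.4 with Mg, Ca and ovalbumin.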

| Ki [1] [nM] | SMILES | Acute Food Intake 24 h [% vehicle] (normal NMRI mice) |
| --- | --- | --- |
| – | CC(C)CC(=O)N[C@@H](C)C(=O)N1CCC[C@H]1C(=O)N[C@@H](CCC(=O)O)C(=O)N[C@@H](CCCCNC(=O)COCCOCCNC(=O)COCCOCCNC(=O)CC[C@H](NC(=O)CCCCCCCCCCCCCCCCC(=O)O)C(=O)O)C(=O)N1CCC[C@H]1C(=O)N[C@@H](CCC(=O)O)C(=O)N[C@@H](C)C(=O)N[C@@H](CC(=O)O)C(=O)N[C@@H](C)C(=O)N[C@@H](CO)C(=O)N[C@@H](CCC(=O)O)C(=O)N[C@@H](CCC(=O)O)C(=O)N[C@@H](CCC(=O)O)C(=O)N[C@@H](CC(C)C)C(=O)N[C@@H](CCC(N)=O)C(=O)N[C@@H](CCCNC(=N)N)C(=O)N[C@@H](Cc1ccc(O)cc1)C(=O)N[C@@H](Cc1ccc(O)cc1)C(=O)N[C@H](C(=O)N[C@@H](CO)C(=O)N[C@@H](CC(C)C)C(=O)N[C@@H](CCCNC(=N)N)C(=O)N[C@@H](Cc1c[nH]cn1)C(=O)N[C@@H](Cc1ccc(O)cc1)C(=O)N[C@@H](Cc1ccc(O)cc1)C(=O)N[C@@H](CC(N)=O)C(=O)N[C@@H](Cc1c[nH]c2ccccc12)C(=O)N[C@@H](CC(C)C)C(=O)N[C@H](C(=O)N[C@@H](CCCNC(=N)N)C(=O)N[C@@H](CCC(N)=O)C(=O)N[C@@H](CCCNC(=N)N)C(=O)N[C@@H](Cc1ccc(O)cc1)C(N)=O)[C@@H](C)O)C(C)C [Compound 30, N{alpha-4}-(3-methylbutanoyl)-N{epsilon-7}-[2-(2-{2-[2-(2-{2-[(4S)-4-carboxy-4-(17-carboxyheptadecanamido)butanamido]ethoxy}ethoxy)acetamido]ethoxy}ethoxy)acetamido]-[4A,7K,9E,10A,14E,18Q,22V,28Y,30W,31L]hPYY (4-36)] | 45 |
| – | CC(C)CC(=O)N[C@@H](C)C(=O)N1CCC[C@H]1C(=O)N[C@@H](CCC(=O)O)C(=O)N[C@@H](CCCCNC(=O)COCCOCCNC(=O)COCCOCCNC(=O)CC[C@H](NC(=O)CCCCCCCCCCCCCCCCC(=O)O)C(=O)O)C(=O)N1CCC[C@H]1C(=O)N[C@@H](CCC(=O)O)C(=O)N[C@@H](CCC(=O)O)C(=O)N[C@@H](CC(=O)O)C(=O)N[C@@H](C)C(=O)N[C@@H](CO)C(=O)N1CCC[C@H]1C(=O)N[C@@H](CCC(=O)O)C(=O)N[C@@H](CCC(=O)O)C(=O)N[C@@H](CC(C)C)C(=O)N[C@@H](CCC(N)=O)C(=O)N[C@@H](CCC(N)=O)C(=O)N[C@@H](Cc1ccc(O)cc1)C(=O)N[C@@H](Cc1ccc(O)cc1)C(=O)N[C@H](C(=O)N[C@@H](CO)C(=O)N[C@@H](CC(C)C)C(=O)N[C@@H](CCCNC(=N)N)C(=O)N[C@@H](Cc1c[nH]cn1)C(=O)N[C@@H](Cc1ccc(O)cc1)C(=O)N[C@@H](Cc1ccc(O)cc1)C(=O)N[C@@H](CC(N)=O)C(=O)N[C@@H](Cc1c[nH]c2ccccc12)C(=O)N[C@@H](CC(C)C)C(=O)N[C@H](C(=O)N[C@@H](CCCNC(=N)N)C(=O)N[C@@H](CCC(N)=O)C(=O)N[C@@H](CCCNC(=N)N)C(=O)N[C@@H](Cc1ccc(O)cc1)C(N)=O)[C@@H](C)O)C(C)C [Compound 58, N{alpha-4}-(3-methylbutanoyl)-N{epsilon-7}-[2-(2-{2-[2-(2-{2-[(4S)-4-carboxy-4-(17-carboxyheptadecanamido)butanamido]ethoxy}ethoxy)acetamido]ethoxy}ethoxy)acetamido]-[4A,7K,9E,18Q,19Q,22V,28Y,30W,31L]hPYY (4-36)] | 44 |
| 25.1 | CC(C)CC(=O)N[C@@H](C)C(=O)N1CCC[C@H]1C(=O)N[C@@H](CCC(=O)O)C(=O)N[C@@H](CCCCNC(=O)COCCOCCNC(=O)COCCOCCNC(=O)CC[C@H](NC(=O)CCCCCCCCCCCCCCCCC(=O)O)C(=O)O)C(=O)N[C@H](C(=O)N[C@@H](CCC(=O)O)C(=O)N[C@@H](CCC(=O)O)C(=O)N[C@@H](CCC(=O)O)C(=O)N[C@@H](C)C(=O)N[C@@H](CO)C(=O)N1CCC[C@H]1C(=O)N[C@@H](CCC(=O)O)C(=O)N[C@@H](CCC(=O)O)C(=O)N[C@@H](CC(C)C)C(=O)N[C@@H](CCC(N)=O)C(=O)N[C@@H](CCCNC(=N)N)C(=O)N[C@@H](Cc1ccc(O)cc1)C(=O)N[C@@H](Cc1ccc(O)cc1)C(=O)N[C@H](C(=O)N[C@@H](CO)C(=O)N[C@@H](CC(C)C)C(=O)N[C@@H](CCCNC(=N)N)C(=O)N[C@@H](Cc1c[nH]cn1)C(=O)N[C@@H](Cc1ccc(O)cc1)C(=O)N[C@@H](Cc1ccc(O)cc1)C(=O)N[C@@H](CC(N)=O)C(=O)N[C@@H](Cc1c[nH]c2ccccc12)C(=O)N[C@@H](CC(C)C)C(=O)N[C@H](C(=O)N[C@@H](CCCNC(=N)N)C(=O)N[C@@H](CCC(N)=O)C(=O)N[C@@H](CCCNC(=N)N)C(=O)N[C@@H](Cc1ccc(O)cc1)C(N)=O)[C@@H](C)O)C(C)C)[C@@H](C)O [Compound 238, N{alpha-4}-(3-methylbutanoyl)-N{epsilon-7}-[2-(2-{2-[2-(2-{2-[(4S)-4-carboxy-4-(17-carboxyheptadecanamido)butanamido]ethoxy}ethoxy)acetamido]ethoxy}ethoxy)acetamido]-[4A,7K,8T,9E,11E,18Q,22V,28Y,30W,31L]hPYY (4-36)] (Isovaleryl-APEK([AEEA-AEEA-γGlu-C18 diacid])TEEEASPEELQRYYVSLRHYYNWLTRQRY-NH2) | – |
| 0.81 | CC(C)CC(=O)N[C@@H](C)C(=O)N1CCC[C@H]1C(=O)N[C@@H](CCC(=O)O)C(=O)N[C@@H](CCCCNC(=O)COCCOCCNC(=O)COCCOCCNC(=O)CC[C@H](NC(=O)CCCCCCCCCCCCCCCCC(=O)O)C(=O)O)C(=O)N1CCC[C@H]1C(=O)N[C@@H](CCC(=O)O)C(=O)N[C@@H](C)C(=O)N[C@@H](CC(=O)O)C(=O)N[C@@H](C)C(=O)N[C@@H](CO)C(=O)N[C@@H](C)C(=O)N[C@@H](CCC(=O)O)C(=O)N[C@@H](CCC(=O)O)C(=O)N[C@@H](CC(C)C)C(=O)N[C@@H](CCC(N)=O)C(=O)N[C@@H](CCCNC(=N)N)C(=O)N[C@@H](Cc1ccc(O)cc1)C(=O)N[C@@H](Cc1ccc(O)cc1)C(=O)N[C@H](C(=O)N[C@@H](CO)C(=O)N[C@@H](CC(C)C)C(=O)N[C@@H](CCCNC(=N)N)C(=O)N[C@@H](Cc1c[nH]cn1)C(=O)N[C@@H](Cc1ccc(O)cc1)C(=O)N[C@@H](Cc1ccc(O)cc1)C(=O)N[C@@H](CC(N)=O)C(=O)N[C@@H](Cc1c[nH]c2ccccc12)C(=O)N[C@@H](CC(C)C)C(=O)N[C@H](C(=O)N[C@@H](CCCNC(=N)N)C(=O)N[C@@H](CCC(N)=O)C(=O)N[C@@H](CCCNC(=N)N)C(=O)N[C@@H](Cc1ccc(O)cc1)C(N)=O)[C@@H](C)O)C(C)C [Compound 242, N{alpha-4}-(3-methylbutanoyl)-N{epsilon-7}-[2-(2-{2-[2-(2-{2-[(4S)-4-carboxy-4-(17-carboxyheptadecanamido)butanamido]ethoxy}ethoxy)acetamido]ethoxy}ethoxy)acetamido]-[4A,7K,9E,10A,14A,18Q,22V,28Y,30W,31L]hPYY (4-36)] | – |
| 2.07 | CC(C)CC(=O)N[C@@H](C)C(=O)N1CCC[C@H]1C(=O)N[C@@H](CCC(=O)O)C(=O)N[C@@H](CCCCNC(=O)COCCOCCNC(=O)COCCOCCNC(=O)CC[C@H](NC(=O)CCCCCCCCCCCCCCCCC(=O)O)C(=O)O)C(=O)N1CCC[C@H]1C(=O)N[C@@H](CCC(=O)O)C(=O)N[C@@H](CCC(=O)O)C(=O)N[C@@H](CCC(=O)O)C(=O)N[C@@H](C)C(=O)N[C@@H](CO)C(=O)N1CCC[C@H]1C(=O)N[C@@H](CCC(=O)O)C(=O)N[C@@H](CCC(=O)O)C(=O)N[C@@H](CC(C)C)C(=O)N[C@@H](CCC(N)=O)C(=O)N[C@@H](CCC(N)=O)C(=O)N[C@@H](Cc1ccc(O)cc1)C(=O)N[C@@H](Cc1ccc(O)cc1)C(=O)N[C@H](C(=O)N[C@@H](CO)C(=O)N[C@@H](CC(C)C)C(=O)N[C@@H](CCCNC(=N)N)C(=O)N[C@@H](Cc1c[nH]cn1)C(=O)N[C@@H](Cc1ccc(O)cc1)C(=O)N[C@@H](Cc1ccc(O)cc1)C(=O)N[C@@H](CC(N)=O)C(=O)N[C@@H](Cc1c[nH]c2ccccc12)C(=O)N[C@@H](CC(C)C)C(=O)N[C@H](C(=O)N[C@@H](CCCNC(=N)N)C(=O)N[C@@H](CCC(N)=O)C(=O)N[C@@H](CCCNC(=N)N)C(=O)N[C@@H](Cc1ccc(O)cc1)C(N)=O)[C@@H](C)O)C(C)C [Compound 243, N{alpha-4}-(3-methylbutanoyl)-N{epsilon-7}-[2-(2-{2-[2-(2-{2-[(4S)-4-carboxy-4-(17-carboxyheptadecanamido)butanamido]ethoxy}ethoxy)acetamido]ethoxy}ethoxy)acetamido]-[4A,7K,9E,11E,18Q,19Q,22V,28Y,30W,31L]hPYY (4-36)] (Isovaleryl-APEK([AEEA-AEEA-γGlu-C18 diacid])PEEEASPEELQQYYVSLRHYYNWLTRQRY-NH2) | – |
